Results reported in US20260272915A1, “PHARMACEUTICAL COMPOSITION FOR TREATING, PREVENTING, OR MANAGING BILIRUBIN-INDUCED NEUROLOGICAL DYSFUNCTION, PSYCHIATRIC DISORDERS ASSOCIATED WITH JAUNDICE, OR PSYCHIATRIC DISORDERS CAUSED BY BILIRUBIN UDP-GLUCURONOSYLTRANSFERASE GENE MUTATIONS” (priority 2023, published 2026).

Assays:
Format in all cases: in vivo, rat
[1] = tested on: jaundice model rats (Gunn rats); assay: Open field test; conditions: for Effect on number of grooming behaviors of Gunn rats (in words) / Effect on number of rearing behaviors of Gunn rats (in words) / Effect on spontaneous activity amount of Gunn rats (in words): compared with normal (Wistar) rats; for Spontaneous Activity Amount, Average / Number of Rearing Behaviors, Average / Number of Grooming Behaviors, Average: Gunn rats (j/j)
Protocol: Eltoprazine (E1357, TCI), which is one of the 5-HT1A/1B receptor agonists, was dissolved in an arbitrary solvent. 0.3 mg/kg of eltoprazine was subcutaneously administered to jaundice model rats (Gunn rats) at 9 to 10 weeks of age. Further, as control groups, only a solvent was subcutaneously administered to Gunn rats and Wistar rats at 9 to 10 weeks of age. Further, as a comparison group, 8OH-DPAT (O415005, FUJIFILM Wako Pure Chemical Corporation), which is one of 5-HT1A receptor agonists, was dissolved in an arbitrary solvent, and 1 mg/kg thereof was subcutaneously administered to Gunn rats. After placing each rat in its home cage for 60 minutes, an open field test was conducted for 60 minutes using the Scanet MV-40 (Melquest Ltd.). The spontaneous activity amount and the number of rearing behaviors were measured for each rat by counting how many times the rat crossed the center evenly spaced. The number of grooming behaviors was counted by visual inspection.
Eltoprazine (E1357, TCI), which is one of the 5-HT1A/1B receptor agonists, was dissolved in an arbitrary solvent. 0.3 mg/kg of eltoprazine was subcutaneously administered to jaundice model rats (Gunn rats) at 9 to 10 weeks of age. Further, as control groups, only a solvent was subcutaneously administered to Gunn rats and Wistar rats at 9 to 10 weeks of age. Further, as a comparison group, CGS12066A (Sigma-Aldrich Co. LLC), which is one of 5-HT1B receptor agonists, was dissolved in an arbitrary solvent, and 1 mg/kg thereof was subcutaneously administered to Gunn rats. After placing each rat in its home cage for 60 minutes, an open field test was conducted for 60 minutes using the Scanet MV-40 (Melquest Ltd.). The spontaneous activity amount and the number of rearing behaviors for each rat were measured by counting how many times the rat crossed the center evenly spaced. The number of grooming behaviors was counted by visual inspection.

Gunn rats [2] = assay: Social interaction test; conditions: for Attacking Behavior, Average / Following Behavior, Average / Sniffing Behavior/Grooming Behavior, Average: Gunn rats (j/j), 1 h after administration, 10 min recording; for Sniffing Behavior/Grooming Behavior, Average: duration of sniffing or grooming the partner
Protocol: Eltoprazine (E1357, TCI), which is one of 5-HT1A/1B receptor agonists, was dissolved in a physiological saline solution. Only a solvent, 0.3 mg/kg of eltoprazine, or 1 mg/kg of eltoprazine was administered subcutaneously to Gunn rats at 9 to 10 weeks of age. For control, only a solvent was administered to Wistar rats as normal rats. One hour after the administration, two rats of the same type (same drug, same dose, same genetic type) were placed together in a single cage, and their behaviors were video-recorded from above for 10 minutes. The recorded video was visually analyzed, and the number of behaviors of following the partner, the attacking behavior, and the duration of sniffing or grooming the partner were measured.

Gunn rats [3] = assay: Startle response prepulse inhibition (PPI) test; conditions: 0.3 mg/kg subcutaneous, 80 dB prepulse
Protocol: Eltoprazine (E1357, TCI), which is one of 5-HT1A/1B receptor agonists, was dissolved in a physiological saline solution. Only a solvent, 0.3 mg/kg of eltoprazine, or 1 mg/kg of eltoprazine was administered subcutaneously to Gunn rats at 9 to 10 weeks of age. For control, only a solvent was administered to Wistar rats as normal rats. One hour after the administration, a startle response prepulse inhibition (PPI) test was performed. The PPI test was conducted using the SR-LAB-Startle Response System (San Diego Institute, USA). Each rat subjected to the measurement was placed in a measurement chamber and acclimated with a 65 dB background white noise for 5 minutes before the start of stimulation. The startle response to a 120 dB auditory stimulation was measured using a piezoelectric sensor attached to the bottom of the chamber. The test session consisted of a total of 50 randomized trials, including no-stimulus (white noise only), 20 ms of 120 dB pulse stimulation, and stimulation with 20 ms of 70 dB or 80 dB prepulse 100 ms before the 120 dB pulse. The interval between the trials was 20 to 60 seconds (average: 40 seconds). The percentage PPI was calculated using the following formula: 100−[(startle response to prepulse-pulse stimulation trial−no-stimulation trial)/(pulse-alone trial−no-stimulation trial)×100].

[4] = 0.3 mg/kg or 1 mg/kg subcutaneous, compared with normal rats

With `c1cc2c(c(N3CCNCC3)c1)OCCO2` [eltoprazine, 5-(piperazin-1-yl)-2,3-dihydro-1,4-benzodioxine] as the compound, how does the “Effect on number of grooming behaviors of Gunn rats (in words)” value ([1]; 0.3 mg/kg subcutaneous) read?
The value was “levels comparable to those of normal rats”.

And the “Effect on number of rearing behaviors of Gunn rats (in words)” value ([1]; 0.3 mg/kg subcutaneous)?
The value was “levels comparable to those of normal rats”.

What about the “Effect on spontaneous activity amount of Gunn rats (in words)” value (“Effect on spontaneous activity amount” below) ([1]; 0.3 mg/kg subcutaneous) of the same compound?
The value was “levels comparable to those of normal rats”.

What about the “Spontaneous Activity Amount, Average” value ([1]; Table 2, 0.3 mg/kg subcutaneous, 60 min home cage then 60 min open field) of the same compound?
Its value is 4640 count.

And the “Number of Rearing Behaviors, Average” value ([1]; Table 3, 0.3 mg/kg subcutaneous, 60 min open field)?
The value was 61.5 times.

And the “Number of Grooming Behaviors, Average” value ([1]; Table 4, 0.3 mg/kg subcutaneous, 60 min open field, visual inspection)?
The value was 8.5 count.

What about the “Spontaneous Activity Amount, Average” value ([1]; Table 5, 0.3 mg/kg subcutaneous, 60 min open field) of the same compound?
Its value is 4640 count.

And the “Number of Rearing Behaviors, Average” value ([1]; Table 6, 0.3 mg/kg subcutaneous, 60 min open field)?
The value was 61.5 count.

And the “Number of Grooming Behaviors, Average” value ([1]; Table 7, 0.3 mg/kg subcutaneous, 60 min open field)?
Its value is 8.5 count.

What about the “Effect on attacking behavior of Gunn rats (in words)” value (Gunn rats [2]; [4]) of the same compound?
Its value is “levels comparable to those of normal rats”.

And the “Effect on duration of sniffing or grooming the partner in Gunn rats (in words)” value (Gunn rats [2]; [4])?
The value was “normal level”.

What about the “Effect on following behavior of Gunn rats (in words)” value (Gunn rats [2]; [4]) of the same compound?
The value was “levels comparable to those of normal rats”.

What about the “Attacking Behavior, Average” value (Gunn rats [2]; 0.3 mg/kg subcutaneous) of the same compound?
The value was 2 count.

And the “Following Behavior, Average” value (Gunn rats [2]; 0.3 mg/kg subcutaneous)?
The value was 2.16 count.

What about the “Attacking Behavior, Average” value (Gunn rats [2]; 1 mg/kg subcutaneous) of the same compound?
The value was 0.16 count.

And the “Following Behavior, Average” value (Gunn rats [2]; 1 mg/kg subcutaneous)?
The value was 3.83 count.

And the “Sniffing Behavior/Grooming Behavior, Average” value (Gunn rats [2]; 0.3 mg/kg subcutaneous)?
The value was 52 count.

What about the “Sniffing Behavior/Grooming Behavior, Average” value (Gunn rats [2]; 1 mg/kg subcutaneous) of the same compound?
Its value is 41.5 count.

And the “Effect on percentage PPI of Gunn rats (in words)” value (Gunn rats [3])?
The value was “tendency to improve”.

What about the “Percentage PPI, Average” value (Gunn rats [3]; 120 dB pulse, Gunn rats (j/j), 1 h after administration) of the same compound?
The value was 63.6%.

How did the “Effect on number of grooming behaviors of Gunn rats (in words)” value ([1]; 1 mg/kg subcutaneous) turn out when `CCCN(CCC)C1CCc2cccc(O)c2C1` (centres unmarked) [8OH-DPAT] was run?
Its value is “levels comparable to those of normal rats”.

And the “Effect on number of rearing behaviors of Gunn rats (in words)” value ([1]; 1 mg/kg subcutaneous)?
The value was “abnormal number of rearing behaviors”.

What about the “Effect on spontaneous activity amount” value ([1]; 1 mg/kg subcutaneous) of the same compound?
Its value is “levels comparable to those of normal rats”.

What about the “Spontaneous Activity Amount, Average” value ([1]; Table 2, 1 mg/kg subcutaneous, 60 min home cage then 60 min open field) of the same compound?
The value was 2681 count.

What about the “Number of Rearing Behaviors, Average” value ([1]; Table 3, 1 mg/kg subcutaneous, 60 min open field) of the same compound?
Its value is 0.3 times.

And the “Number of Grooming Behaviors, Average” value ([1]; Table 4, 1 mg/kg subcutaneous, 60 min open field, visual inspection)?
Its value is 5.5 count.

For `CN1CCN(c2nc3cc(C(F)(F)F)ccc3n3cccc23)CC1` [CGS12066A], which “Effect on number of grooming behaviors of Gunn rats (in words)” value ([1]; 1 mg/kg subcutaneous) is on record?
Its value is “did not improve”.

And the “Effect on number of rearing behaviors of Gunn rats (in words)” value ([1]; 1 mg/kg subcutaneous)?
The value was “levels comparable to those of normal rats”.

And the “Effect on spontaneous activity amount” value ([1]; 1 mg/kg subcutaneous)?
Its value is “levels comparable to those of normal rats”.

What about the “Spontaneous Activity Amount, Average” value ([1]; Table 5, 1 mg/kg subcutaneous, 60 min open field) of the same compound?
The value was 4030 count.

What about the “Number of Rearing Behaviors, Average” value ([1]; Table 6, 1 mg/kg subcutaneous, 60 min open field) of the same compound?
The value was 47 count.

And the “Number of Grooming Behaviors, Average” value ([1]; Table 7, 1 mg/kg subcutaneous, 60 min open field)?
Its value is 19.6 count.
